In ChEMBL document CHEMBL4308841, “Synthesis, in vitro antiproliferative activity, and kinase inhibitory effects of pyrazole-containing diarylureas and diarylamides” (Eur J Med Chem, 2018):

Tested on: M14
Assay: Growth inhibition of human M14 cells assessed as cell growth at 1 uM incubated for 48 hrs by sulforhodamine B assay relative to control
Assay type: functional
Conditions: M14, 48 h, read-out: Activity

Row | Structure (SMILES) | growth at 1 µM [%]
1 | COc1cc(Cl)cc(-c2nn(-c3cccc(NC(=O)c4cccc(C(F)(F)F)c4)c3)cc2-c2ccncc2)c1 | 83

Tested on: A498
Assay: Growth inhibition of human A498 cells assessed as cell growth at 0.01 uM incubated for 48 hrs by sulforhodamine B assay relative to control
Assay type: functional
Conditions: A498, 48 h, read-out: Activity

Row | Structure (SMILES) | growth at 0.01 µM [%]
2 | COc1cc(Cl)cc(-c2nn(-c3cccc(NC(=O)c4cccc(C(F)(F)F)c4)c3)cc2-c2ccncc2)c1 | 58

Tested on: SNB-19
Assay: Growth inhibition of human SNB19 cells assessed as cell growth at 1 uM incubated for 48 hrs by sulforhodamine B assay relative to control
Assay type: functional
Conditions: SNB-19, 48 h, read-out: Activity

Row | Structure (SMILES) | growth at 1 µM [%]
3 | COc1cc(Cl)cc(-c2nn(-c3cccc(NC(=O)c4cccc(C(F)(F)F)c4)c3)cc2-c2ccncc2)c1 | 100

Tested on: NCI-H23
Assay: Growth inhibition of human NCI-H23 cells incubated for 48 hrs by sulforhodamine B assay
Assay type: functional, cell-based
Conditions: NCI-H23, 48 h, read-out: GI50

Row | Structure (SMILES) | GI50 [µM]
4 | COc1cc(Cl)cc(-c2nn(-c3cccc(NC(=O)c4cccc(C(F)(F)F)c4)c3)cc2-c2ccncc2)c1 | 5.74

Same assay, conditions: NCI-H23, 48 h, read-out: LC50

Row | Structure (SMILES) | LC50 [µM]
5 | COc1cc(Cl)cc(-c2nn(-c3cccc(NC(=O)c4cccc(C(F)(F)F)c4)c3)cc2-c2ccncc2)c1 | > 100

Same assay, conditions: NCI-H23, 48 h, read-out: TGI

Row | Structure (SMILES) | TGI [µM]
6 | COc1cc(Cl)cc(-c2nn(-c3cccc(NC(=O)c4cccc(C(F)(F)F)c4)c3)cc2-c2ccncc2)c1 | > 100

Same assay, conditions: NCI-H23, 48 h, read-out: pGI50 (converted)

Row | Structure (SMILES) | GI50 [µM]
7 | COc1cc(Cl)cc(-c2nn(-c3cccc(NC(=O)c4cccc(C(F)(F)F)c4)c3)cc2-c2ccncc2)c1 | 6.76

Same assay, conditions: NCI-H23, 48 h, read-out: pLC50 (converted)

Row | Structure (SMILES) | LC50 [µM]
8 | COc1cc(Cl)cc(-c2nn(-c3cccc(NC(=O)c4cccc(C(F)(F)F)c4)c3)cc2-c2ccncc2)c1 | > 100

Same assay, conditions: NCI-H23, 48 h, read-out: pTGI (converted)

Row | Structure (SMILES) | TGI [µM]
9 | COc1cc(Cl)cc(-c2nn(-c3cccc(NC(=O)c4cccc(C(F)(F)F)c4)c3)cc2-c2ccncc2)c1 | > 100

Tested on: MOLT-4
Assay: Growth inhibition of human MOLT4 cells assessed as cell growth at 0.01 uM incubated for 48 hrs by sulforhodamine B assay relative to control
Assay type: functional
Conditions: MOLT-4, 48 h, read-out: Activity

Row | Structure (SMILES) | growth at 0.01 µM [%]
10 | COc1cc(Cl)cc(-c2nn(-c3cccc(NC(=O)c4cccc(C(F)(F)F)c4)c3)cc2-c2ccncc2)c1 | 91

Tested on: RXF 393
Assay: Growth inhibition of human RXF393 cells assessed as cell growth at 100 uM incubated for 48 hrs by sulforhodamine B assay relative to control
Assay type: functional
Conditions: RXF 393, 48 h, read-out: Activity

Row | Structure (SMILES) | growth at 100 µM [%]
11 | COc1cc(Cl)cc(-c2nn(-c3cccc(NC(=O)c4cccc(C(F)(F)F)c4)c3)cc2-c2ccncc2)c1 | 19

Tested on: KM12
Assay: Growth inhibition of human KM12 cells incubated for 48 hrs by sulforhodamine B assay
Assay type: functional, cell-based
Conditions: KM12, 48 h, read-out: GI50

Row | Structure (SMILES) | GI50 [µM]
12 | COc1cc(Cl)cc(-c2nn(-c3cccc(NC(=O)c4cccc(C(F)(F)F)c4)c3)cc2-c2ccncc2)c1 | 4.53

Same assay, conditions: KM12, 48 h, read-out: LC50 (the source's name)

Row | Structure (SMILES) | CC50 [µM]
13 | COc1cc(Cl)cc(-c2nn(-c3cccc(NC(=O)c4cccc(C(F)(F)F)c4)c3)cc2-c2ccncc2)c1 | > 100

Same assay, conditions: KM12, 48 h, read-out: TGI

Row | Structure (SMILES) | TGI [µM]
14 | COc1cc(Cl)cc(-c2nn(-c3cccc(NC(=O)c4cccc(C(F)(F)F)c4)c3)cc2-c2ccncc2)c1 | > 100

Same assay, conditions: KM12, 48 h, read-out: pGI50 (converted)

Row | Structure (SMILES) | GI50 [µM]
15 | COc1cc(Cl)cc(-c2nn(-c3cccc(NC(=O)c4cccc(C(F)(F)F)c4)c3)cc2-c2ccncc2)c1 | 4.57

Same assay, conditions: KM12, 48 h, read-out: pLC50 (the source's name) (converted)

Row | Structure (SMILES) | CC50 [µM]
16 | COc1cc(Cl)cc(-c2nn(-c3cccc(NC(=O)c4cccc(C(F)(F)F)c4)c3)cc2-c2ccncc2)c1 | > 100

Same assay, conditions: KM12, 48 h, read-out: pTGI (converted)

Row | Structure (SMILES) | TGI [µM]
17 | COc1cc(Cl)cc(-c2nn(-c3cccc(NC(=O)c4cccc(C(F)(F)F)c4)c3)cc2-c2ccncc2)c1 | > 100

Tested on: HCC 2998
Assay: Growth inhibition of human HCC2998 cells assessed as cell growth at 100 uM incubated for 48 hrs by sulforhodamine B assay relative to control
Assay type: functional
Conditions: HCC 2998, 48 h, read-out: Activity

Row | Structure (SMILES) | growth at 100 µM [%]
18 | COc1cc(Cl)cc(-c2nn(-c3cccc(NC(=O)c4cccc(C(F)(F)F)c4)c3)cc2-c2ccncc2)c1 | 15

Tested on: NCI-H226
Assay: Growth inhibition of human NCI-H226 cells assessed as cell growth at 0.01 uM incubated for 48 hrs by sulforhodamine B assay relative to control
Assay type: functional
Conditions: NCI-H226, 48 h, read-out: Activity

Row | Structure (SMILES) | growth at 0.01 µM [%]
19 | COc1cc(Cl)cc(-c2nn(-c3cccc(NC(=O)c4cccc(C(F)(F)F)c4)c3)cc2-c2ccncc2)c1 | 95

Tested on: NCI-H322M
Assay: Growth inhibition of human NCI-H322M cells assessed as cell growth at 1 uM incubated for 48 hrs by sulforhodamine B assay relative to control
Assay type: functional
Conditions: read-out: Activity

Row | Structure (SMILES) | growth at 1 µM [%]
20 | COc1cc(Cl)cc(-c2nn(-c3cccc(NC(=O)c4cccc(C(F)(F)F)c4)c3)cc2-c2ccncc2)c1 | 90

Tested on: NCI-H23
Assay: Growth inhibition of human NCI-H23 cells assessed as cell growth at 0.01 uM incubated for 48 hrs by sulforhodamine B assay relative to control
Assay type: functional
Conditions: NCI-H23, 48 h, read-out: Activity

Row | Structure (SMILES) | growth at 0.01 µM [%]
21 | COc1cc(Cl)cc(-c2nn(-c3cccc(NC(=O)c4cccc(C(F)(F)F)c4)c3)cc2-c2ccncc2)c1 | 93

Tested on: NCI-H460
Assay: Growth inhibition of human NCI-H460 cells assessed as cell growth at 100 uM incubated for 48 hrs by sulforhodamine B assay relative to control
Assay type: functional
Conditions: NCI-H460, 48 h, read-out: Activity

Row | Structure (SMILES) | growth at 100 µM [%]
22 | COc1cc(Cl)cc(-c2nn(-c3cccc(NC(=O)c4cccc(C(F)(F)F)c4)c3)cc2-c2ccncc2)c1 | 30

Tested on: T47D
Assay: Growth inhibition of human T47D cells assessed as cell growth at 0.1 uM incubated for 48 hrs by sulforhodamine B assay relative to control
Assay type: functional
Conditions: read-out: Activity

Row | Structure (SMILES) | growth at 0.1 µM [%]
23 | COc1cc(Cl)cc(-c2nn(-c3cccc(NC(=O)c4cccc(C(F)(F)F)c4)c3)cc2-c2ccncc2)c1 | 101

Tested on: IGROV-1
Assay: Growth inhibition of human IGROV1 cells assessed as cell growth at 0.1 uM incubated for 48 hrs by sulforhodamine B assay relative to control
Assay type: functional
Conditions: IGROV-1, 48 h, read-out: Activity

Row | Structure (SMILES) | growth at 0.1 µM [%]
24 | COc1cc(Cl)cc(-c2nn(-c3cccc(NC(=O)c4cccc(C(F)(F)F)c4)c3)cc2-c2ccncc2)c1 | 100

Tested on: UACC-62
Assay: Growth inhibition of human UACC62 cells assessed as cell growth at 1 uM incubated for 48 hrs by sulforhodamine B assay relative to control
Assay type: functional
Conditions: UACC-62, 48 h, read-out: Activity

Row | Structure (SMILES) | growth at 1 µM [%]
25 | COc1cc(Cl)cc(-c2nn(-c3cccc(NC(=O)c4cccc(C(F)(F)F)c4)c3)cc2-c2ccncc2)c1 | 56

Tested on: SN12C
Assay: Growth inhibition of human SN12C cells assessed as cell growth at 0.1 uM incubated for 48 hrs by sulforhodamine B assay relative to control
Assay type: functional
Conditions: read-out: Activity

Row | Structure (SMILES) | growth at 0.1 µM [%]
26 | COc1cc(Cl)cc(-c2nn(-c3cccc(NC(=O)c4cccc(C(F)(F)F)c4)c3)cc2-c2ccncc2)c1 | 99

Tested on: KM12
Assay: Growth inhibition of human KM12 cells assessed as cell growth at 100 uM incubated for 48 hrs by sulforhodamine B assay relative to control
Assay type: functional
Conditions: KM12, 48 h, read-out: Activity

Row | Structure (SMILES) | growth at 100 µM [%]
27 | COc1cc(Cl)cc(-c2nn(-c3cccc(NC(=O)c4cccc(C(F)(F)F)c4)c3)cc2-c2ccncc2)c1 | 28

Tested on: MDA-MB-435
Assay: Growth inhibition of human MDA-MB-435 cells assessed as cell growth at 0.1 uM incubated for 48 hrs by sulforhodamine B assay relative to control
Assay type: functional
Conditions: MDA-MB-435, 48 h, read-out: Activity

Row | Structure (SMILES) | growth at 0.1 µM [%]
28 | COc1cc(Cl)cc(-c2nn(-c3cccc(NC(=O)c4cccc(C(F)(F)F)c4)c3)cc2-c2ccncc2)c1 | 95
